Measured values published in patent US11944605B2, “Rapamycin analogs and uses thereof” (Janssen Pharmaceutica NV, priority 2018, dated 2024).
“Also recorded” adds a separate entry of the source.

Tests used:
Assay type in all cases: cell-based
[1] = tested on: mTORC1 over mTORC2; experiment: mTORC1 selectivity over mTORC2 at 24 hrs (Western blot based pS6K1 and pAKT assay); settings: 24 hrs
Protocol: (§1) Western Blot Based pS6K1 and pAKT Assay at 24 and 48 Hour Timepoints
(§2) 1. Seed six well plate with 500,000 PC3 cells per well and incubate for 20˜24 hour.
(§3) 2. Add compounds into the cell plate. Incubate for 24 to 48 hours.
(§4) 4. Plate is placed on ice and the media is removed via aspiration. The wells are washed with 1 mL of 1× PBS and then fully aspirated.
(§5) 5. 110 μL of 1% Triton Lysis Buffer is added and each well is scraped vigorously.
(§6) 6. Cell homogenates are transferred to 1.5 mL eppendorf tubes on ice and spun down at 4° C. for 10 minutes at 10,000 rpm.
(§7) 9. The membranes were washed 3× with TBS-T with a 5 minute incubation between each wash then incubated with secondary antibody (LiCor IRDye 800 Donkey Anti Rabbit) for at least 30 minutes.
(§8) 10. The membranes were washed 3× with TBS-T with a 5 minute incubation between each wash.
(§9) 11. The gels were then incubated for 5 minutes with PBS at room temperature then imaged using a Li-Cor.
“N/A” stands for “not assayed.”

[2] = tested on: mTORC2 pathway (Akt phosphorylation) in PC3 cells; experiment: Western blot, mTORC2 pathway (pAkt) in PC3 cells; settings: 24 hours
Protocol: as §1, §2, §3, §4, §5, §6, §7, §8, §9
(§10) The methods employed were substantially similar to those described above. Compounds were evaluated in PC3 cells, Jurkat cells, wild-type mouse embryotic fibroblast (MEF) cells, tuberous sclerosis 2 (TSC2) negative (TSC −/−) MEF cells, and tuberous sclerosis 2 (TSC2) positive (TSC +/+) MEF cells. Cells were incubated with compounds of the present invention for various time periods (e.g., 5 minutes, 15 minutes, 30 minutes, 90 minutes, 24 hours, or 48 hours), and evaluated according to known methodologies, such as those herein described.

[3] = tested on: mTORC1 pathway (pS6K1 T389) in PC3 cells; experiment: Western blot, mTORC1 pathway (pS6K1) in PC3 cells; settings: PC3 cells, 24 hours
Protocol: as §1, §2, §3, §4, §5, §6, §7, §8, §9, §10

[4] = tested on: pS6K1 (p-p70 S6 Kinase (Thr389)) in MCF-7 cells; experiment: AlphaLISA Ultra pS6K1 Assay; settings: Homo sapiens, 1.5 h; MCF7 cells, 90 min
Outline: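 MCF-7 cells were seeded for 20–24 h, refed with fresh medium for 2 h, then treated with compound for 90 min at 0.5% final DMSO. Lysates were frozen at −80 °C, thawed and assayed by AlphaLISA with acceptor then donor beads, 2 h each.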

Structure (SMILES) | IC50 [4] | mTORC1 selective @ 24 hrs [1] | inhibition of mTORC2 (Akt phosphorylation) [2] | inhibition of the mTORC1 pathway [3]
CO[C@@H]1C[C@H](C[C@@H](C)[C@@H]2CC(=O)[C@H](C)/C=C(\C)[C@@H](O)[C@@H](OC)C(=O)[C@H](C)C[C@H](C)/C=C/C=C/C=C(\C)[C@@H](OCC(CO)CO)C[C@@H]3CC[C@@H](C)[C@@](O)(O3)C(=O)C(=O)N3CCCC[C@H]3C(=O)O2)CC[C@H]1O [I-5] |  | YES | do not inhibit | strong inhibition
CO[C@@H]1CC(C[C@@H](C)C2CC(=O)[C@H](C)/C=C(\C)[C@@H](O)[C@@H](OC)C(=O)[C@H](C)C[C@H](C)/C=C/C=C/C=C(\C)[C@@H](OCCOCC(F)(F)F)C[C@@H]3CC[C@@H](C)[C@@](O)(O3)C(=O)C(=O)N3CCCC[C@H]3C(=O)O2)CC[C@H]1OCCO (stereo partly drawn) [I-71, (21E,23E,25E,26E,33R,34S,35R,36R,38S,40S,42S,43S,44R,45R,54R)-44, 54-dihydroxy-43-[(1R)-2-[(1S,3R,4R)-4-(2-hydroxyethoxy)-3-methoxy-cyclohexyl]-1-methyl-ethyl]-45-methoxy-33, 34,35,36,46,47-hexamethyl-42-[2-(2,2,2-trifluoroethoxy)ethoxy]-65,66-dioxa-56-azatricyclohexatriaconta-21,23,25(46),26(47)-tetraene-48, 49,50,51,52-pentone] | 0.1 to 1 nM | YES | do not inhibit | strong inhibition
CO[C@H]1C[C@@H]2CC[C@@H](C)[C@@](O)(O2)C(=O)C(=O)N2CCCC[C@H]2C(=O)O[C@H]([C@H](C)C[C@@H]2CC[C@@H](OP(C)(C)=O)[C@H](OC)C2)CC(=O)[C@H](C)/C=C(\C)[C@@H](O)[C@@H](OC)C(=O)[C@H](C)C[C@H](C)/C=C/C=C/C=C/1C [ridaforolimus, reference compound] |  |  | dose dependent inhibition | strong inhibition
CO[C@H]1C[C@@H]2CC[C@@H](C)[C@@](O)(O2)C(=O)C(=O)N2CCCC[C@H]2C(=O)O[C@H]([C@H](C)C[C@@H]2CC[C@@H](OC(=O)C(C)(CO)CO)[C@H](OC)C2)CC(=O)[C@H](C)/C=C(\C)[C@@H](O)[C@@H](OC)C(=O)[C@H](C)C[C@H](C)/C=C/C=C/C=C/1C [temsirolimus, reference compound] |  |  | dose dependent inhibition | strong inhibition
CO[C@@H]1C[C@H](C[C@@H](C)[C@@H]2CC(=O)[C@H](C)/C=C(\C)[C@@H](O)[C@@H](OC)C(=O)[C@H](C)C[C@H](C)/C=C/C=C/C=C(\C)[C@@H](OCCCC(=O)N(C)C)C[C@@H]3CC[C@@H](C)[C@@](O)(O3)C(=O)C(=O)N3CCCC[C@H]3C(=O)O2)CC[C@H]1OCCO [I-62, 4-[[(23E, 25E,27E,28E,35R,36S,37R,38R,40S,42S,44S,45S,46R,47R,57R)-46,57-dihydroxy-45-[(1R)-2-[(1S, 3R,4R)-4-(2-hydroxyethoxy)-3-methoxy-cyclohexyl]-1-methyl-ethyl]-47-methoxy-35, 36,37,38,48,49-hexamethyl-50,51,52,53,54-pentaoxo-69,70-dioxa-58-azatricyclohexatriaconta-23, 25,27(48),28(49)-tetraen-44-yl]oxy]-N,N-dimethyl-butanamide] | 1 to 10 nM | YES | do not inhibit | strong inhibition
CO[C@@H]1C[C@H](C[C@@H](C)[C@@H]2CC(=O)[C@H](C)/C=C(\C)[C@@H](O)[C@@H](OC)C(=O)[C@H](C)C[C@H](C)/C=C/C=C/C=C(\C)C(OCCOCCOCCOCCOCCOCCOCCOCCOCCOCCOCCO)C[C@@H]3CC[C@@H](C)[C@@](O)(O3)C(=O)C(=O)N3CCCC[C@H]3C(=O)O2)CC[C@H]1O (stereo partly drawn) [I-96, (21E,23E,25E,26E,50R,51S,52R,53R,55S,57S,60S,61R,62R,71R)-61, 71-dihydroxy-59-[2-[2-[2-[2-[2-[2-[2-[2-[2-[2-(2-hydroxyethoxy)ethoxy]ethoxy]ethoxy]ethoxy]ethoxy]ethoxy]ethoxy]ethoxy]ethoxy]ethoxy]-60-[(1R)-2-[(1S,3R,4R)-4-hydroxy-3-methoxy-cyclohexyl]-1-methyl-ethyl]-62-methoxy-50, 51,52,53,63,64-hexamethyl-82,83-dioxa-72-azatricyclohexatriaconta-21, 23,25(63),26(64)-tetraene-65,66,67,68,69-pentone] | 0.1 to 1 nM | YES | do not inhibit | strong inhibition

The next lines start with results.

IC50 [4] | Structure (SMILES) | mTORC1 selective @ 24 hrs [1] | inhibition of mTORC2 (Akt phosphorylation) [2] | inhibition of the mTORC1 pathway [3]
0.1 to 1 nM | CO[C@@H]1C[C@H](C[C@@H](C)[C@@H]2CC(=O)[C@H](C)/C=C(\C)[C@@H](O)[C@@H](OC)C(=O)[C@H](C)C[C@H](C)/C=C/C=C/C=C(\C)C(OCC(COCCC#N)(COCCC#N)COCCC#N)C[C@@H]3CC[C@@H](C)[C@@](O)(O3)C(=O)C(=O)N3CCCC[C@H]3C(=O)O2)CC[C@H]1O (stereo partly drawn) [I-101, 3-[2,2-bis(2-cyanoethoxymethyl)-3-[[(21E, 23E,25E,26E,41R,42S,43R,44R,46S,48S,51S,52R,53R,62R)-52,62-dihydroxy-51-[(1R)-2-[(1S, 3R,4R)-4-hydroxy-3-methoxy-cyclohexyl]-1-methyl-ethyl]-53-methoxy-41, 42,43,44,54,55-hexamethyl-56,57,58,59,60-pentaoxo-76,77-dioxa-67-azatricyclohexatriaconta-21, 23,25(54),26(55)-tetraen-50-yl]oxy]propoxy]propanenitrile] | YES | do not inhibit | strong inhibition; also recorded: appreciable concentration dependent inhibition; also recorded: moderate concentration dependent inhibition
0.1 to 1 nM | CO[C@@H]1C[C@H](C[C@@H](C)[C@@H]2CC(=O)[C@H](C)/C=C(\C)[C@@H](O)[C@@H](OC)C(=O)[C@H](C)C[C@H](C)/C=C/C=C/C=C(\C)C(OCCOCCOCCOCCOCCOCCOCCO)C[C@@H]3CC[C@@H](C)[C@@](O)(O3)C(=O)C(=O)N3CCCC[C@H]3C(=O)O2)CC[C@H]1OCCO (stereo partly drawn) [I-99, (21E,23E,25E,26E,44R,45S,46R,47R,49S,51S,54S,55R,56R,65R)-55, 65-dihydroxy-53-[2-[2-[2-[2-[2-[2-(2-hydroxyethoxy)ethoxy]ethoxy]ethoxy]ethoxy]ethoxy]ethoxy]-54-[(1R)-2-[(1S, 3R,4R)-4-(2-hydroxyethoxy)-3-methoxy-cyclohexyl]-1-methyl-ethyl]-56-methoxy-44, 45,46,47,57,58-hexamethyl-76,77-dioxa-66-azatricyclohexatriaconta-21, 23,25(57),26(58)-tetraene-59,60,61,62,63-pentone] | YES | do not inhibit | appreciable concentration dependent inhibition; also recorded: moderate concentration dependent inhibition
< 0.1 nM | COCCOCCO[C@H]1C[C@@H]2CC[C@@H](C)[C@@](O)(O2)C(=O)C(=O)N2CCCC[C@H]2C(=O)O[C@H]([C@H](C)C[C@@H]2CC[C@@H](O)[C@H](OC)C2)CC(=O)[C@H](C)/C=C(\C)[C@@H](O)[C@@H](OC)C(=O)[C@H](C)C[C@H](C)/C=C/C=C/C=C/1C [I-120, (22E,24E,26E,27E,33R,34S,35R,36R,38S,40S,43S,44R,45R,54R)-44, 54-dihydroxy-43-[(1R)-2-[(1S,3R,4R)-4-hydroxy-3-methoxy-cyclohexyl]-I-methyl-ethyl]-45-methoxy-42-[S-2-(2-methoxyethoxy)ethoxy]-33,34,35,36,46,47-hexamethyl-64,65-dioxa-55-azatricyclohexatriaconta-22, 24,26(46),27(47)-tetraene-48,49,50,51,52-pentone] | YES |  | 
≥ 100 nM | CO[C@@H]1C[C@H](C[C@@H](C)[C@@H]2CC(=O)[C@H](C)/C=C(\C)[C@@H](O)[C@@H](OC)C(=O)[C@H](C)C[C@H](C)/C=C/C=C/C=C(\C)[C@H](OCC3COCCOCCOCCOCCO3)C[C@@H]3CC[C@@H](C)[C@@](O)(O3)C(=O)C(=O)N3CCCC[C@H]3C(=O)O2)CC[C@H]1O (stereo partly drawn) [I-107, (30E,32E,34E,35E,38R,39S,40R,41R,43S,45S,47R,48S,50R,51R,60R)-50, 60-dihydroxy-48-[(1R)-2-[(1S,3R,4R)-4-hydroxy-3-methoxy-cyclohexyl]-1-methyl-ethyl]-51-methoxy-38, 39,40,41,52,53-hexamethyl-47-(1,4,7,10,13-pentaoxacyclopentadec-2-ylmethoxy)-75, 76-dioxa-61-azatricyclohexatriaconta-30,32,34(52),35(53)-tetraene-54,55,56,57,58-pentone] | YES |  | 
